From PubChem BioAssay (NCI)
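Briefly, cells in 96-well plates were exposed to five compound concentrations for 48 h, and endpoints were estimated by linear interpolation. At the GI50, growth is halved. At the TGI there is no net growth.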

Tests used:
Assay in all cases: DTP human tumour cell line panel, 48 h
[1] = system: BT-549 breast
[2] = system: RPMI-8226 leukemia
[3] = system: A498 renal
[4] = system: NCI/ADR-RES ovarian
[5] = system: SK-MEL-5 melanoma
[6] = system: MDA-MB-435
[7] = system: MALME-3M melanoma
[8] = system: SF-268 CNS
[9] = system: K-562 leukemia
[10] = system: OVCAR-8 ovarian
[11] = system: DU-145 prostate
[12] = system: NCI-H460 lung
[13] = system: MOLT-4 leukemia
[14] = system: SK-MEL-2 melanoma
[15] = system: SW-620 colon
[16] = system: UACC-62 melanoma
[17] = system: HT29 colon
[18] = system: M14 melanoma
[19] = system: HL-60(TB) leukemia
[20] = system: LOX IMVI melanoma
[21] = system: SN12C renal
[22] = system: COLO 205 colon
[23] = system: OVCAR-4 ovarian
[24] = system: 786-0 renal
[25] = system: SK-OV-3 ovarian
[26] = system: TK-10 renal
[27] = system: MDA-MB-231 breast
[28] = system: SNB-75 CNS
[29] = system: EKVX NSCLC
[30] = system: IGROV1 ovarian
[31] = system: HS 578T breast
[32] = system: ACHN renal
[33] = system: A549 NSCLC
[34] = system: U251 CNS
[35] = system: SF-539 CNS
[36] = system: PC-3 prostate
[37] = system: HCC-2998 colon
[38] = system: NCI-H226 lung
[39] = system: NCI-H23 lung
[40] = system: SF-295 CNS
[41] = system: HOP-92 NSCLC
[42] = system: CCRF-CEM leukemia
[43] = system: OVCAR-5 ovarian
[44] = system: OVCAR-3 ovarian
[45] = system: MCF7 breast
[46] = system: RXF 393 renal
[47] = system: HOP-62 NSCLC
[48] = system: HCT-15 colon
[49] = system: CAKI-1 renal
[50] = system: KM12 colon
[51] = system: NCI-H522 lung
[52] = system: HCT-116 colon
[53] = system: UACC-257 melanoma
[54] = system: UO-31 renal
[55] = system: SNB-19 CNS
[56] = system: SK-MEL-28 melanoma

COc1ccc(/C(C)=C(\c2ccc(Cl)cc2)c2ccc(OCCN3CCCCC3)cc2)cc1
GI50 [1]: 3.19 µM
TGI [1]: 7.55 µM
GI50 [2]: 1.44 µM
TGI [2]: 6.64 µM
GI50 [3]: 4.73 µM
TGI [3]: 10.4 µM
GI50 [4]: 4.79 µM
TGI [4]: 9.86 µM
GI50 [5]: 1.57 µM
TGI [5]: 5.44 µM
GI50 [6]: 3.93 µM
TGI [6]: 8.56 µM
GI50 [7]: 4.01 µM
TGI [7]: 8.49 µM
GI50 [8]: 7.75 µM
TGI [8]: 26.8 µM
GI50 [9]: 1.28 µM
TGI [9]: 10.4 µM
GI50 [10]: 5.64 µM
TGI [10]: 11.8 µM
GI50 [11]: 8.29 µM
TGI [11]: 26.6 µM
GI50 [12]: 4.15 µM
TGI [12]: 9.34 µM
GI50 [13]: 4.1 µM
TGI [13]: 19.5 µM
GI50 [14]: 5.85 µM
TGI [14]: 10.7 µM
GI50 [15]: 3.34 µM
TGI [15]: 8.09 µM
GI50 [16]: 2.12 µM
TGI [16]: 6.45 µM
GI50 [17]: 0.984 µM
TGI [17]: 3.87 µM
GI50 [18]: 0.861 µM
TGI [18]: 2.36 µM
GI50 [19]: 3.94 µM
TGI [19]: 12.6 µM
GI50 [20]: 1.89 µM
TGI [20]: 6.2 µM
GI50 [21]: 4.68 µM
TGI [21]: 9.53 µM
GI50 [22]: 2.25 µM
TGI [22]: 7.05 µM
GI50 [23]: 3.76 µM
TGI [23]: 9.51 µM
GI50 [24]: 0.746 µM
TGI [24]: 1.9 µM
GI50 [25]: 6.25 µM
TGI [25]: 12.3 µM
GI50 [26]: 5.66 µM
TGI [26]: 13.8 µM
GI50 [27]: 4.58 µM
TGI [27]: 9.22 µM
GI50 [28]: 4.11 µM
TGI [28]: 10.6 µM
GI50 [29]: 2.66 µM
TGI [29]: 8.79 µM
GI50 [30]: 4.93 µM
TGI [30]: 11.2 µM
GI50 [31]: 5.16 µM
TGI [31]: 13.3 µM
GI50 [32]: 5.13 µM
TGI [32]: 9.61 µM
GI50 [33]: 4.51 µM
TGI [33]: 10.2 µM
GI50 [34]: 4.13 µM
TGI [34]: 8.77 µM
GI50 [35]: 3.54 µM
TGI [35]: 7.68 µM
GI50 [36]: 1.81 µM
TGI [36]: 6.59 µM
GI50 [37]: 3.84 µM
TGI [37]: 8.1 µM
GI50 [38]: 4.85 µM
TGI [38]: 9.7 µM
GI50 [39]: 4.34 µM
TGI [39]: 10.2 µM
GI50 [40]: 2.97 µM
TGI [40]: 7.54 µM
GI50 [41]: 3.45 µM
TGI [41]: 7.55 µM
GI50 [42]: 3.05 µM
TGI [42]: 14.4 µM
GI50 [43]: 4.16 µM
TGI [43]: 9.55 µM
GI50 [44]: 5.26 µM
TGI [44]: 11 µM
GI50 [45]: 0.604 µM
TGI [45]: 5.71 µM
GI50 [46]: 2.5 µM
TGI [46]: 7.29 µM
GI50 [47]: 4.83 µM
TGI [47]: 9.96 µM
GI50 [48]: 1.16 µM
TGI [48]: 4.56 µM
GI50 [49]: 5.23 µM
TGI [49]: 12.4 µM
GI50 [50]: 2.72 µM
TGI [50]: 16 µM
GI50 [51]: 4.12 µM
TGI [51]: 8.66 µM
GI50 [52]: 1.46 µM
TGI [52]: 5.24 µM
GI50 [53]: 5.73 µM
TGI [53]: 10.8 µM
GI50 [54]: 3.46 µM
TGI [54]: 7.4 µM
GI50 [55]: 5.32 µM
TGI [55]: 12.6 µM
GI50 [56]: 3.99 µM
TGI [56]: 8.4 µM

C=CC(=O)N1CCN(CCCn2c(=O)c(-c3c(Cl)c(OC)cc(OC)c3Cl)cc3cnc(NC)nc32)CC1
GI50 [1]: 0.681 µM
TGI [1]: 16 µM
GI50 [2]: 1.03 µM
TGI [2]: 4.09 µM
TGI [3]: 1.81 µM
GI50 [4]: 7.12 µM
TGI [4]: 67.6 µM
GI50 [5]: 1.65 µM
TGI [5]: 12.3 µM
GI50 [6]: 2.74 µM
TGI [6]: 13.8 µM
GI50 [7]: 1.7 µM
TGI [7]: 12.5 µM
GI50 [8]: 3.02 µM
TGI [8]: 21.3 µM
GI50 [9]: 5.96 µM
TGI [9]: > 100 µM
GI50 [10]: 3.95 µM
TGI [10]: 22.9 µM
GI50 [11]: 2.69 µM
TGI [11]: 17.7 µM
GI50 [12]: 3.22 µM
TGI [12]: 19 µM
GI50 [13]: 1.83 µM
TGI [13]: > 100 µM
GI50 [14]: 1.13 µM
TGI [14]: 6.31 µM
GI50 [15]: 4.07 µM
TGI [15]: 34.2 µM
GI50 [16]: 2.79 µM
TGI [16]: 15.1 µM
GI50 [17]: 4.4 µM
TGI [17]: 20 µM
GI50 [18]: 1.67 µM
TGI [18]: 16.8 µM
GI50 [19]: 2.8 µM
TGI [19]: 29 µM
GI50 [20]: 1.67 µM
TGI [20]: 15 µM
GI50 [21]: 3.13 µM
TGI [21]: 16.2 µM
GI50 [23]: 1.14 µM
TGI [23]: 25 µM
GI50 [24]: 1.32 µM
TGI [24]: 17.2 µM
GI50 [25]: 2.18 µM
TGI [25]: 8.38 µM
GI50 [26]: 1.75 µM
TGI [26]: 16.6 µM
GI50 [27]: 3.52 µM
TGI [27]: 14.6 µM
TGI [28]: 9.36 µM
GI50 [29]: 4.38 µM
TGI [29]: 19.6 µM
GI50 [30]: 0.888 µM
TGI [30]: 13.8 µM
GI50 [31]: 2.25 µM
TGI [31]: 51.8 µM
GI50 [32]: 0.71 µM
TGI [32]: 11.6 µM
GI50 [33]: 4.41 µM
TGI [33]: 19.7 µM
GI50 [34]: 2.57 µM
TGI [34]: 17 µM
GI50 [35]: 1.58 µM
TGI [35]: 9.5 µM
GI50 [36]: 2.5 µM
TGI [36]: 11.4 µM
GI50 [37]: 10.9 µM
TGI [37]: 24.6 µM
GI50 [38]: 0.0408 µM
TGI [38]: 20.7 µM
GI50 [39]: 5.57 µM
TGI [39]: 20.9 µM
GI50 [40]: 3.54 µM
TGI [40]: 16.5 µM
GI50 [42]: 2.04 µM
TGI [42]: 11.9 µM
GI50 [43]: 15.8 µM
TGI [43]: 33.5 µM
GI50 [44]: 5.6 µM
TGI [44]: 20.4 µM
GI50 [45]: 8.06 µM
TGI [45]: 31.8 µM
GI50 [46]: 1.33 µM
TGI [46]: 12.9 µM
GI50 [47]: 5.56 µM
TGI [47]: 19.3 µM
GI50 [48]: 2.63 µM
TGI [48]: 15 µM
GI50 [49]: 0.782 µM
TGI [49]: 13.6 µM
GI50 [50]: 4.61 µM
TGI [50]: 19.9 µM
GI50 [51]: 2.51 µM
TGI [51]: 14.6 µM
GI50 [52]: 2.63 µM
TGI [52]: 17.1 µM
GI50 [53]: 3.8 µM
TGI [53]: 18 µM
GI50 [54]: 0.849 µM
TGI [54]: 12.4 µM
GI50 [55]: 7.32 µM
TGI [55]: 20.7 µM
GI50 [56]: 7.07 µM
TGI [56]: 20.9 µM

COc1cc(C=C2C(=O)NC(=O)NC2=O)ccc1OCc1ccccc1
GI50 [1]: 33.9 µg/mL
GI50 [2]: 22.3 µg/mL
GI50 [20]: 87.8 µg/mL
GI50 [39]: 69.9 µg/mL
GI50 [41]: 71.8 µg/mL
GI50 [42]: 79.7 µg/mL
GI50 [54]: 61.2 µg/mL
